Assay results reported in the NIST ThermoML archive (doi:10.1016/j.jct.2015.06.023).

Legend:
[1] = Liquid; for mass density: 101.33 kPa, Vibrating tube method; for vapor or sublimation pressure: 363.2 K, Closed cell (Static) method
[2] = excess molar enthalpy (molar enthalpy of mixing); xn = mol fraction of the nth substance listed; settings: 363.2 K, 100 kPa, Liquid, Flow calorimetry
[3] = activity coefficient (dimensionless); of the first substance listed, at infinite dilution; xn = mol fraction of the nth substance listed; settings: 100 kPa, Liquid, Chromatography, x1 = 0

CCCCCC[n+]1ccccc1.O=S(=O)([N-]S(=O)(=O)C(F)(F)F)C(F)(F)F [1-hexylpyridinium bis(trifluromethylsulfonyl)imide]
[1]
Settings	mass density [kg/m3]
293.15 K	1389.16
298.15 K	1384.56
299.15 K	1383.67
303.15 K	1380.22
313.15 K	1371.26
323.15 K	1362.38
333.15 K	1353.54
343.15 K	1344.76
353.15 K	1336.02

CCCCCC[n+]1ccccc1.O=S(=O)([N-]S(=O)(=O)C(F)(F)F)C(F)(F)F [1-hexylpyridinium bis(trifluromethylsulfonyl)imide] + CCCCO
[2]
Settings	excess molar enthalpy [kcal/mol]
x2 = 0.043	0.0722
x2 = 0.083	0.14
x2 = 0.157	0.258
x2 = 0.222	0.356
x2 = 0.282	0.436
x2 = 0.384	0.55
x2 = 0.469	0.619
x2 = 0.572	0.661
x2 = 0.655	0.652
x2 = 0.743	0.594
x2 = 0.812	0.505
x2 = 0.868	0.399
x2 = 0.914	0.284
x2 = 0.952	0.168
x2 = 0.985	0.0549

CCCCCC[n+]1ccccc1.O=S(=O)([N-]S(=O)(=O)C(F)(F)F)C(F)(F)F [1-hexylpyridinium bis(trifluromethylsulfonyl)imide] + CCCO
[2]
Settings	excess molar enthalpy [kcal/mol]
x2 = 0.052	0.0851
x2 = 0.1	0.165
x2 = 0.185	0.299
x2 = 0.259	0.402
x2 = 0.324	0.483
x2 = 0.432	0.589
x2 = 0.519	0.643
x2 = 0.621	0.661
x2 = 0.699	0.633
x2 = 0.779	0.56
x2 = 0.841	0.462
x2 = 0.889	0.358
x2 = 0.928	0.251
x2 = 0.961	0.146
x2 = 0.988	0.0477

c1ccccc1 [benzene] + CCCCCC[n+]1ccccc1.O=S(=O)([N-]S(=O)(=O)C(F)(F)F)C(F)(F)F
[3]
Settings	activity coefficient
303.2 K	0.639
313.2 K	0.655
323.2 K	0.627
333.2 K	0.657
343.2 K	0.605

CCCCO [butan-1-ol]
Settings	vapor or sublimation pressure [kPa]
[1]	34.47

CCCCO [butan-1-ol] + CCCCCC[n+]1ccccc1.O=S(=O)([N-]S(=O)(=O)C(F)(F)F)C(F)(F)F
[3]
Settings	activity coefficient
303.2 K	2.74
313.2 K	1.72
323.2 K	1.59
333.2 K	1.42
343.2 K	1.25

C1CCCCC1 [cyclohexane] + CCCCCC[n+]1ccccc1.O=S(=O)([N-]S(=O)(=O)C(F)(F)F)C(F)(F)F
[3]
Settings	activity coefficient
303.2 K	5.19
313.2 K	4.86
323.2 K	4.68
333.2 K	4.41
343.2 K	4.3

CCO [ethanol] + CCCCCC[n+]1ccccc1.O=S(=O)([N-]S(=O)(=O)C(F)(F)F)C(F)(F)F
[3]
Settings	activity coefficient
303.2 K	1.64
313.2 K	1.35
323.2 K	1.28
333.2 K	1.13
343.2 K	0.996

CCCO [propan-1-ol]
Settings	vapor or sublimation pressure [kPa]
[1]	76.56

CCCO [propan-1-ol] + CCCCCC[n+]1ccccc1.O=S(=O)([N-]S(=O)(=O)C(F)(F)F)C(F)(F)F
[3]
Settings	activity coefficient
303.2 K	1.98
313.2 K	1.49
323.2 K	1.47
333.2 K	1.26
343.2 K	1.15

Cc1ccccc1 [toluene] + CCCCCC[n+]1ccccc1.O=S(=O)([N-]S(=O)(=O)C(F)(F)F)C(F)(F)F
[3]
Settings	activity coefficient
303.2 K	0.828
313.2 K	0.868
323.2 K	0.82
333.2 K	0.847
343.2 K	0.882
